The test relates to MIA PaCa-2 (−) cells. Nature of the test: Cell binding assay, MIA PaCa-2. Type of test: cell-based. The settings on record: 1 h, 37 °C, γ-counter, n = 3. From the text:
Binding to cells with minimal to no expression of integrin αvβ6 was low at 4.4 ± 0.1% to DX3puro cells and 7.9 ± 0.4% to pancreatic MIA PaCa-2 cells. Binding of [^64Cu]PDC-1 to DX3puroβ6 (+) and BxPC-3 (+) was reduced by adding increasing amounts of DOTA-PDC-1, illustrating that the αvβ6-selective uptake could be blocked (Figure S3). Internalization of [^64Cu]-PDC-1 into cells was high with >50% of the bound radioactivity internalized for all cells expressing the integrin αvβ6. In comparison, cell binding of [^64Cu]2 to DX3puroβ6 (+) cells was 58.8 ± 2.3, and 3.3 ± 0.4% to the DX3puro (−) cells.
Cell binding and internalization assay. Binding and internalization were determined as previously described. […] The fraction of bound radioactivity was determined with a γ-counter (by measuring cell pellet and combined supernatants). To determine the fraction of internalized radioactivity, the cells were re-pelleted, and re-suspended in acidic wash buffer (0.2 M sodium acetate, 0.5 M sodium chloride, pH = 2.5, 300 μL, 4 °C, 5 min) to release surface bound activity, followed by a wash with PBS (300 μL). The internalized fraction was determined with a γ-counter (cell pellet vs. radioactivity released into supernatant). A Wizard 1470 or Wizard 2 2470 automatic γ-counter (Perkin-Elmer, Waltham, MA) was used to measure radioactivity samples. […]

Regarding `CC[C@H](C)[C@@H]([C@@H](CC(=O)N1CCC[C@H]1[C@H](OC)[C@@H](C)C(=O)N[C@H](C)[C@@H](O)c1ccccc1)OC)N(C)C(=O)[C@@H](NC(=O)[C@H](C(C)C)N(C)C(=O)OCc1ccc(NC(=O)[C@H](CCCNC(N)=O)NC(=O)[C@@H](NC(=O)CCOCCOCCNC(=O)CCN2C(=O)CC(SC[C@H](NC(=O)CN3CCN(CC(=O)O)CCN(CC(=O)O)CCN(CC(=O)O)CC3)C(=O)NCCOCCOCCOCCOCCOCCOCCOCCOCCOCCOCCOCCOCCOCCOCCOCCOCCOCCOCCOCCOCCOCCOCCOCCOCCOCCOCCOCCOCCC(=O)N[C@@H](CC(N)=O)C(=O)N[C@@H](C)C(=O)N[C@H](C(=O)N3CCC[C@H]3C(=O)N[C@@H](CC(N)=O)C(=O)N[C@@H](CC(C)C)C(=O)N[C@@H](CCCNC(=N)N)C(=O)NCC(=O)N[C@@H](CC(=O)O)C(=O)N[C@@H](CC(C)C)C(=O)N[C@@H](CCC(N)=O)C(=O)N[C@H](C(=O)N[C@@H](CC(C)C)C(=O)N[C@@H](C)C(=O)N[C@@H](CCC(N)=O)C(=O)N[C@@H](CCCNC(=N)N)C(=O)N[C@H](C(=O)N[C@@H](C)C(=O)N[C@@H](CCCNC(=N)N)C(=O)N[C@H](C(=O)NCCOCCOCCOCCOCCOCCOCCOCCOCCOCCOCCOCCOCCOCCOCCOCCOCCOCCOCCOCCOCCOCCOCCOCCOCCOCCOCCOCCOCCC(N)=O)[C@@H](C)O)C(C)C)C(C)C)C(C)C)C2=O)C(C)C)cc1)C(C)C` (stereo partly shown) [[^64Cu]PDC-1, metal not drawn], the Cell binding turned out to be 7.9 ± 0.4%.

The record behind these values is publication PMC10388305, “Synthesis and Evaluation of a Monomethyl Auristatin E—Integrin αvβ6 Binding Peptide–Drug Conjugate for Tumor Targeted Drug Delivery” (Journal of Medicinal Chemistry, 2023).
